The results in this text go back to US10940139B2, “Compounds that interact with the Ras superfamily for the treatment of cancers, inflammatory diseases, rasopathies, and fibrotic disease” (Shy Therapeutics LLC, priority 2017, dated 2021).

Chain of KRas G12D/Q61H double mutant (P01116-2 other isoform, or with tags, fused parts or gaps G12D/Q61H): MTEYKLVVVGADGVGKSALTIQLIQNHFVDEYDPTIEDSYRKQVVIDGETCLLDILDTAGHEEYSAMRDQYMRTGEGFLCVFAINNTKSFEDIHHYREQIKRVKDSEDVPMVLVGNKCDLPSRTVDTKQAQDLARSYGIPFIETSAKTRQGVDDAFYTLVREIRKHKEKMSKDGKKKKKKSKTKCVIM

The target of the first experiment is KRas G12D/Q61H double mutant (Homo sapiens (Human), UniProt P01116, G12D/Q61H). Briefly: Ras GTP binding domain inhibition assay (labeled GTP). The conditions noted are these: 20 μM compound; KRas G12D/Q61H double mutant. As to the method:
Buffer-I: • 50 mM Tris, pH 7.5 • 150 mM NaCl (optional) • 1 mM MgCl2 • 1 mM DTT. • KRas G12D mutant protein was expressed as a His-tagged protein. Purified His-KRas G12D protein was diluted in buffer-I to a final concentration of 3-10 μg/ml. • 200 μl of the diluted His-KRas G12D protein was added to a nickel coated 96 well plate and incubated overnight at 4° C. • The next day, wells were washed 3× in 200 μl of Buffer-I. • Then 200 μl of Buffer-I were added to each well in the presence of 1% DMSO. • Tested compounds were added to the protein-coated wells at a concentration of 20 μM, and incubated for 3 hours at room temperature. While performing IC50 measurements a serial dilution of all tested concentrations was prepared.
Then 22 μl of Cy3-GTP or Cy5-GTP was added to each well. The labeled GTP was incubated for 45 min. at room temperature. • Following GTP incubation, wells were washed 3× in Buffer-I, and 200 μl of Buffer-I were added to each well. • Following washes, the amount of bound labeled-GTP was measured with an Eppendorf AF2200 plate reader.
By substituting KRas G12D mutant protein with KRas G12C mutant, KRas wild type, KRas Q61H mutant, KRas G12D/Q61H double mutant or KRas G12C/Q61H double mutant under the assay conditions described above, KRas G12C mutant KRas wild type, KRas Q61H mutant, KRas G12D/Q61H double mutant and KRas G12C/Q61H double mutant inhibition, respectively, were each determined.
For `O=C(Cc1ccc2c(c1)OCCO2)Nc1nc(-c2ccccn2)cs1` [drawing 3247], the “% Inhibition at 20 μM of K-Ras mutant and wild-type protein, KRas G12D Q61H” value is “A (1-25% inhibition)”.

The same experiment, now with this note: 20 μM compound; KRas G12D/Q61H double mutant; read-out: % Inhibition at 20 μM of K-Ras mutant and wild-type protein, KRas G12D Q61H.
On to `COc1cc(C(=O)NCC(c2cccs2)N(C)C)ccc1OCc1ccccc1Cl` (stereo not drawn), for which the inhibition at 20 µM fell in the range of 1 to 25%.

Turning to `CC1CCC(NS(=O)(=O)CC(=O)N2CCCC2Cc2ccccc2Cl)CC1` (stereo not drawn), the inhibition at 20 µM lay in the range of 25 to 50%.

As to `COc1ccc(N(C(=O)c2ccc(COc3ccccc3)o2)C(C)C2CC2)cc1` (stereo not drawn), the inhibition at 20 µM fell in the range of 25 to 50%.

Turning to `COCCCOC1(CSc2nnc(COc3cc(C)ccc3C)o2)CCCC1`, the inhibition at 20 µM lay within 25 to 50%.

As for `CC[S+]([O-])c1ccccc1C(=O)OCc1ccc(-c2ccccc2C#N)cc1` (stereo not drawn), the inhibition at 20 µM lay in the range of 25 to 50%.

Consider `Cc1ccc(C)c(OCc2nnc(SCc3c(C#N)c(C)nn3-c3ccccc3)o2)c1`, for which the inhibition at 20 µM fell in the range of 25 to 50%.

Turning to `Cc1cc(C)c2c(N)c(C(=O)OCc3ccc(C(=O)N4CCCC4)cc3)sc2n1`, the inhibition at 20 µM fell in the range of 1 to 25%.

On to `Cc1c(C(=O)N(CCc2ccccc2)Cc2ccccc2)cccc1[N+](=O)[O-]`, for which the inhibition at 20 µM fell in the range of 25 to 50%.

Turning to `Cc1cccc(-n2ccnc2SCCCc2nc(-c3cccs3)no2)c1`, the inhibition at 20 µM is 25 to 50%.

On to `CCOc1ccccc1N1CC(c2nc3ccccc3n2CCC2CCCCC2)CC1=O` (stereo not drawn), for which the inhibition at 20 µM lay in the range of 25 to 50%.

Take `CC(=O)c1ccccc1OCCN(c1nccs1)S(=O)(=O)c1ccccc1`: the inhibition at 20 µM lay in the range of 25 to 50%.

Still in this experiment, the particulars now being: 20 μM compound; read-out: % Inhibition at 20 μM KRas G12D Q61H.
Regarding `O=C(NCC(=O)N1CCN(C2CC3CCC2C3)CC1)c1ccccn1` (stereo not drawn), the inhibition at 20 µM was in the range of 25 to 50%.

For the molecule `COC(=O)CCN(Cc1ccc(Oc2ccc(OC)cc2)cc1)C1CCOCC1`, the inhibition at 20 µM lay within 1 to 25%.

As to `COCCN(c1nc2ccccc2s1)S(=O)(=O)c1ccccc1`, the inhibition at 20 µM is 25 to 50%.

As to `FC(F)(F)c1ccnc(N2CCCC2c2cccs2)n1` (stereo not drawn), the inhibition at 20 µM was in the range of 1 to 25%.

On to `O=C(c1cccc(S(=O)(=O)N2CCOCC2)c1)N1N=C(c2ccccc2)CC1(O)C(F)(F)F` (stereo not drawn), for which the inhibition at 20 µM lay within 25 to 50%.

As to `CNC(=O)CNc1nc(-c2ccccn2)nc2scc(-c3ccccc3)c12`, the inhibition at 20 µM was in the range of 25 to 50%.

In the case of `O=C(c1cnc(-c2ccccc2)s1)N1CCC(c2ccccc2)CC1`, the inhibition at 20 µM fell in the range of 25 to 50%.

Take `O=C(Nc1nc(-c2ccccn2)cs1)c1cccc(-n2cnnn2)c1`: the inhibition at 20 µM lay in the range of 25 to 50%.

`Fc1ccc(OCc2nnc(SCCCc3ccccc3)o2)cc1`: the inhibition at 20 µM lay within 25 to 50%.

For the molecule `COCc1nc(C)c(C(=O)Nc2nnc(-c3ccccn3)[nH]2)s1`, the inhibition at 20 µM lay in the range of 25 to 50%.

In the case of `COCC1CCN(C(=O)c2csc3c(O)nc(-c4ccccn4)nc23)CC1` [drawing 2675], the inhibition at 20 µM fell in the range of 25 to 50%.

On to `COC(=O)CCN(Cc1cc(Br)cc(C(F)(F)F)c1)C1CCOCC1`, for which the inhibition at 20 µM was 1 to 25%.

On to `N#Cc1ccc(CC(=O)Nc2nc(-c3ccccn3)nc3sccc23)cc1` [drawing 2817], for which the inhibition at 20 µM lay within 1 to 25%.

`COc1ccc(CC(=O)Nc2nc(-c3ccccn3)cs2)cc1`: the inhibition at 20 µM was 25 to 50%.

Regarding `O=C(CCc1ccccc1F)Nc1nnc(-c2ccccn2)[nH]1`, the inhibition at 20 µM is 25 to 50%.

On to `COCCCC(=O)N1CCCc2c(O)nc(-c3ccccn3)nc21` [drawing 2648], for which the inhibition at 20 µM was 51 to 75%.

`c1ccc(OCc2nc(CNCCn3cccn3)cs2)cc1`: the inhibition at 20 µM fell in the range of 25 to 50%.

Turning to `c1ccc(-c2nc(N3CCOCC3)c3ccsc3n2)nc1` [drawing 2702], the inhibition at 20 µM was in the range of 51 to 75%.

For the molecule `Cc1ccc(-c2nnc(C(C)N3CCCc4ccccc43)o2)cc1` (stereo not drawn), the inhibition at 20 µM lay in the range of 1 to 25%.

Take `CCCn1c(CNc2ccccc2OCCOC)nc2cc(S(=O)(=O)N(C)C)ccc21`: the inhibition at 20 µM lay within 1 to 25%.

For the molecule `Cc1c(C(=O)N(c2ccccc2)C(C)C)cnn1-c1ccccn1`, the inhibition at 20 µM fell in the range of 1 to 25%.

For the molecule `COC(=O)c1cccc(NCc2nc(CC(C)C)no2)c1`, the inhibition at 20 µM is 25 to 50%.

Regarding `O=S(=O)(c1ccccc1)N1CCCc2c(O)nc(-c3ccccn3)nc21` [drawing 2652], the inhibition at 20 µM was in the range of 1 to 25%.

`CC(c1ccc(Cl)cc1Cl)N(C)Cc1nnc(-c2ccccc2)o1` (stereo not drawn): the inhibition at 20 µM lay in the range of 25 to 50%.

For `O=C(Nc1nnc(-c2ccccn2)[nH]1)c1ccc(Oc2ccccc2)cc1`, the inhibition at 20 µM was 25 to 50%.

Consider `CN(Cc1ccc(C(F)(F)F)cc1)Cc1cc([N+](=O)[O-])cc2c1OCOC2`, for which the inhibition at 20 µM fell in the range of 1 to 25%.

Take `COc1ccc(CN(Cc2cccs2)C(=O)c2cc3ccccc3o2)cc1OC`: the inhibition at 20 µM was in the range of 25 to 50%.

On to `O=C(Nc1cccc(C(=O)Nc2nnc(-c3ccccn3)[nH]2)c1)c1cccnc1`, for which the inhibition at 20 µM lay within 25 to 50%.

On to `Cc1oc(-c2ccccc2)nc1CN(C)CC(=O)Nc1ccc(N2CCOCC2)cc1`, for which the inhibition at 20 µM lay within 25 to 50%.

As to `O=C1COc2c(cccc2C(=O)Nc2nnc(-c3ccccn3)[nH]2)N1`, the inhibition at 20 µM fell in the range of 25 to 50%.

For the molecule `O=C(c1cc(-c2ccc(F)cc2)[nH]n1)N(Cc1ccco1)C1CCCC1`, the inhibition at 20 µM lay within 1 to 25%.

With `O=c1nc(-c2ccccn2)[nH]c2c1cnn2-c1cccc(C(F)(F)F)c1`, the inhibition at 20 µM lay within 25 to 50%.

As to `COc1ccccc1CC(=O)Nc1nnc(-c2ccccn2)[nH]1`, the inhibition at 20 µM lay within 25 to 50%.

With `CN(C)S(=O)(=O)c1ccc(CN2CCCc3cc(OC(F)(F)F)ccc32)o1`, the inhibition at 20 µM was in the range of 25 to 50%.

As to `COc1ccc(OC)c(S(=O)(=O)N(Cc2ccccc2)Cc2ccccc2)c1`, the inhibition at 20 µM was in the range of 25 to 50%.

Regarding `CCOC(=O)CCN(Cc1cccnc1)c1nc(C(F)(F)F)ccc1C#N`, the inhibition at 20 µM is 1 to 25%.

As to `CN(Cc1ccc(C(F)(F)F)cc1)Cc1cc2c(cc1O)CCC2`, the inhibition at 20 µM lay in the range of 25 to 50%.

On to `O=C(Nc1nnc(-c2ccccn2)[nH]1)c1ccc(NC2CC2)nc1`, for which the inhibition at 20 µM lay in the range of 25 to 50%.

Turning to `Cc1ccccc1OCCn1c(CN2CCCCC2)nc2ccccc21`, the inhibition at 20 µM lay in the range of 25 to 50%.

Take `Cc1nc(-c2ccccn2)nc(O)c1CCC(=O)N(C)c1cccc(C#N)c1`: the inhibition at 20 µM fell in the range of 25 to 50%.

With `Cc1cnc(-c2ccccn2)nc1NC(=O)COCc1ccnc(O)c1` [drawing 2816], the inhibition at 20 µM is 25 to 50%.

Turning to `O=C(CCNS(=O)(=O)c1ccc2c(c1)CCCC2)Nc1nnc(-c2ccccn2)[nH]1`, the inhibition at 20 µM lay within 25 to 50%.

As for `N#Cc1ccccc1CN1CCN(c2cccc(C(F)(F)F)c2)CC1`, the inhibition at 20 µM is 1 to 25%.

For `Cc1nc(CNc2ccccc2Oc2cccc(F)c2)no1`, the inhibition at 20 µM was 1 to 25%.

The experiment is the same for the next values; noted with them: 20 μM; read-out: KRas G12D Q61H % Inh.
On to `O=C(Cc1ccc2c(c1)OCO2)Nc1nnc(-c2ccccn2)[nH]1` [drawing 2549], for which the inhibition at 20 µM was 51 to 75%.

With `Cc1nc(-c2ccccn2)nc(O)c1CCC(=O)Nc1cc(F)ccc1F` [drawing 2596], the inhibition at 20 µM lay within 51 to 75%.

On to `CCN(CC)S(=O)(=O)c1ccc(NCCOC)c(C(=O)NCCSCc2ccc(C)cc2)c1` [drawing 2633], for which the inhibition at 20 µM lay within 25 to 50%.

In the case of `Cc1noc(C)c1CC(=O)Nc1nnc(-c2ccccn2)[nH]1` [drawing 2492], the inhibition at 20 µM was 51 to 75%.

As to `O=C(Nc1nnc(-c2ccccn2)[nH]1)C1CCCN(C(=O)c2cccs2)C1` (stereo not drawn), the inhibition at 20 µM was 51 to 75%.

For `O=C(Nc1nnc(-c2ccccn2)[nH]1)c1ccc(CN2C(=O)CCC2=O)cc1` [drawing 2481], the inhibition at 20 µM fell in the range of 51 to 75%.

With `COc1ccc(CN(CC[S+]([O-])c2cc(Cl)ccc2Cl)C2CC2)cc1` (stereo not drawn) [drawing 2625], the inhibition at 20 µM lay within 25 to 50%.

With `CC(Oc1ccccc1Cl)C(=O)Nc1nnc(-c2ccccn2)[nH]1` (stereo not drawn) [drawing 2467], the inhibition at 20 µM is 51 to 75%.

As to `CC(C(=O)Nc1nnc(-c2ccccn2)[nH]1)n1cnc2ccccc21` (stereo not drawn), the inhibition at 20 µM lay in the range of 51 to 75%.

`CNC(=O)c1sc2[nH]c(-c3ccccn3)nc(=O)c2c1C` [drawing 2584]: the inhibition at 20 µM fell in the range of 25 to 50%.

In the case of `O=C(Nc1nnc(-c2ccccn2)[nH]1)c1ccc(Oc2ccccc2)nc1` [drawing 2491], the inhibition at 20 µM was in the range of 51 to 75%.

Take `O=C(Nc1nnc(-c2ccccn2)[nH]1)C1Cc2ccccc2O1` (stereo not drawn) [drawing 2509]: the inhibition at 20 µM lay within 51 to 75%.

For `O=C(Nc1nnc(-c2ccccn2)[nH]1)C1CCCC(C(F)(F)F)C1` (stereo not drawn) [drawing 2518], the inhibition at 20 µM was 51 to 75%.

`O=C(Nc1nnc(-c2ccccn2)[nH]1)C1CCN(C(=O)c2cccs2)CC1` [drawing 2556]: the inhibition at 20 µM was 51 to 75%.

On to `CC(OCC(F)(F)F)C(=O)Nc1nnc(-c2ccccn2)[nH]1` (stereo not drawn) [drawing 2479], for which the inhibition at 20 µM lay in the range of 51 to 75%.

As to `CC(C)C(=O)Nc1nc(CC(=O)Nc2nnc(-c3ccccn3)[nH]2)cs1` [drawing 2541], the inhibition at 20 µM was 51 to 75%.

In the case of `NC(=O)c1ccc(OCC(=O)Nc2nnc(-c3ccccn3)[nH]2)cc1` [drawing 2538], the inhibition at 20 µM is 51 to 75%.

Turning to `O=C(Cc1cccs1)Nc1nnc(-c2ccccn2)[nH]1` [drawing 2487], the inhibition at 20 µM was 51 to 75%.

In the case of `CCCCSc1nc(-c2cccs2)c(C(=O)C(F)(F)F)cc1C#N` [drawing 2618], the inhibition at 20 µM is 51 to 75%.
